Test results: patent publication US20240343704A1, “HALO-SUBSTITUTED AMINO PYRIDINE COMPOUNDS AS INHIBITORS OF THE HAEMATOPOIETIC PROGENITOR KINASE 1 (HPK1)” (priority 2021, published 2024)
Where a name gives a salt, the structure may show the parent alone. Read-outs that look alike come from different tables or passages of the source.

Tests used:
[1] = biological target: T1, Recombinant (1-346) HPK1 (h) (Homo sapiens, UniProt Q92918); experiment: HPK1 Human STE Kinase Enzymatic Radiometric Assay; assay type: biochemical; conditions: read-out: HPK1 IC50 nM Range*
T1 construct: Recombinant (1-346) HPK1 (h) is incubated with 8 mM MOPS pH 7.0
T1 sequence (Q92918 1-346): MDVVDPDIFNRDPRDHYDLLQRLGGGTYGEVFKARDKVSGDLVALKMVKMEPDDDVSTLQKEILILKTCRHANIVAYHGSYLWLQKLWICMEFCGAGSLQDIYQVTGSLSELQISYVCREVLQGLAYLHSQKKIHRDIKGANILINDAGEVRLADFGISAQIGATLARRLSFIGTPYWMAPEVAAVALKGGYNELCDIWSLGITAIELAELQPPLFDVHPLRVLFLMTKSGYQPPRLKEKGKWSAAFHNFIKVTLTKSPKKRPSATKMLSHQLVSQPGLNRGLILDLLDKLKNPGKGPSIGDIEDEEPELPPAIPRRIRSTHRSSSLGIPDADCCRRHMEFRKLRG
Experimental: A stock solution of 10 mM of test compound is prepared in DMSO. The compound plate was prepared by 3-fold and 9-point serial dilutions. […] The reaction is initiated by The addition of the Mg/ATP mix. After incubation for 40 minutes at RT, the reaction is stopped by the addition of phosphoric acid to a concentration of 0.5%.

Lck (h) = Lck (h) (Homo sapiens, UniProt P06239); experiment: Lck Human  Kinase Enzymatic Radiometric Assay; assay type: biochemical
Sequence of Lck (h) (P06239 whole entry): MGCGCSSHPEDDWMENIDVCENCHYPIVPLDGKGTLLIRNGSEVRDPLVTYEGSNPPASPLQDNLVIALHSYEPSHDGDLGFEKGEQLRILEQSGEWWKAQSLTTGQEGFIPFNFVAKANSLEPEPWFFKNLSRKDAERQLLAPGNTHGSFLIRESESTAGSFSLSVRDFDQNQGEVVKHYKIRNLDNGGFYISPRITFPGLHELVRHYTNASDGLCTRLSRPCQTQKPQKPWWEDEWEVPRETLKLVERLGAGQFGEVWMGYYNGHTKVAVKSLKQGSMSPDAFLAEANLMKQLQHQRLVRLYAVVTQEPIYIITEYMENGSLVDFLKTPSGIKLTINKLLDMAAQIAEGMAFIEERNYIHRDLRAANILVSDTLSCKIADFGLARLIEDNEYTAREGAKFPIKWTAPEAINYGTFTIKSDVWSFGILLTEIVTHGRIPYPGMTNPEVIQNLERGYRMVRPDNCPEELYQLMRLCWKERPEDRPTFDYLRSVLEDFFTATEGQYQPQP
How it was run: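 Substrate 33P-incorporation measured by scintillation counting after spotting on P30 filtermat and phosphoric acid washes. Human Lck reacted 40 min at RT in 50 mM Tris pH 7.5 with 10 mM MgAcetate, [gamma-33P]-ATP, 250 uM Cdc2 peptide, 0.1 mM EGTA and 0.1 mM Na3VO4.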

SMILES | IC50 [1] | IC50 (Lck (h); read-out: Lck IC50 nM Range*) | IC50 (Lck (h); read-out: Lck IC50 nM Range* (number printed instead of a class))
CC(C)N1CCc2cc(-c3cc(-c4ccc5c(c4)CCNC5=O)c(N)nc3F)nn2CC1=O [I-228, 2-(6-amino-2-fluoro-5-(1-oxo-1,2,3,4-tetrahydroisoquinolin-6-yl)pyridin-3-yl)-6-isopropyl-5,6-dihydro-4H-pyrazolo[1,5-d][1,4]diazepin-7(8H)-one] | 11 to 100 nM | > 1000 nM | –
Nc1nc(F)c(-c2cc3n(n2)CC(=O)NCC3)cc1-c1ccc2c(c1)CCNC2=O [I-229, 2-(6-amino-2-fluoro-5-(1-oxo-1,2,3,4-tetrahydroisoquinolin-6-yl)pyridin-3-yl)-5,6-dihydro-4H-pyrazolo[1,5-d][1,4]diazepin-7(8H)-one] | 11 to 100 nM | > 1000 nM | –
CN1CC=C(c2ccc(-c3cc(-c4ccc5c(c4)CCNC5=O)c(N)nc3Cl)cc2)CC1 [I-230, 6-(2-amino-6-chloro-5-(4-(1-methyl-1,2,3,6-tetrahydropyridin-4-yl)phenyl)pyridin-3-yl)-3,4-dihydroisoquinolin-1(2H)-one] | 11 to 100 nM | > 1000 nM | –
CN1CCC(c2ccc(-c3cc(-c4ccc5c(c4)CCNC5=O)c(N)nc3Cl)cc2)CC1 [I-231, 6-(2-amino-6-chloro-5-(4-(1-methylpiperidin-4-yl)phenyl)pyridin-3-yl)-3,4-dihydroisoquinolin-1(2H)-one] | 11 to 100 nM | > 1000 nM | –
CN1CC=C(c2ccc(-c3cc(-c4cc5c(cc4F)C(=O)NCC5)c(N)nc3Cl)cc2)CC1 [I-232, 6-(2-amino-6-chloro-5-(4-(1-methyl-1,2,3,6-tetrahydropyridin-4-yl)phenyl)pyridin-3-yl)-7-fluoro-3,4-dihydroisoquinolin-1(2H)-one] | 11 to 100 nM | > 1000 nM | –
CN1CCC(c2ccc(-c3cc(-c4cc5c(cc4F)C(=O)NCC5)c(N)nc3Cl)cc2)CC1 [I-233, 6-(2-amino-6-chloro-5-(4-(1-methylpiperidin-4-yl)phenyl)pyridin-3-yl)-7-fluoro-3,4-dihydroisoquinolin-1(2H)-one] | 11 to 100 nM | > 1000 nM | –
Cc1c(N)cncc1-c1cc(-c2ccc3c(c2)CCNC3=O)c(N)nc1F [I-234, 6-(5,6-diamino-2-fluoro-4′-methyl-[3,3′-bipyridin]-5-yl)-3,4-dihydroisoquinolin-1(2H)-one 2,2,2-trifluoroacetate] | > 1000 nM | > 1000 nM | –
CCN1CCC(c2ccc(-c3cc(-c4ccc5c(c4)CCNC5=O)c(N)nc3F)cc2)C1 (stereo not drawn) [I-235, 6-(2-amino-5-(4-(1-ethylpyrrolidin-3-yl)phenyl)-6-fluoropyridin-3-yl)-3,4-dihydroisoquinolin-1(2H)-one] | 0.1 to 10 nM | > 1000 nM | –
Nc1nc(F)c(-c2ccc(N3CCN(CC(F)F)CC3)cc2)cc1-c1cc2c(cc1F)C(=O)NCC2 [I-236, 6-(2-amino-5-(4-(4-(2,2-difluoroethyl)piperazin-1-yl)phenyl)-6-fluoropyridin-3-yl)-7-fluoro-3,4-dihydroisoquinolin-1(2H)-one] | 0.1 to 10 nM | > 1000 nM | –
Nc1nc(F)c(-c2ccc(N3CCN(CC(F)(F)F)CC3)cc2)cc1-c1cc2c(cc1F)C(=O)NCC2 [I-237, 6-(2-amino-6-fluoro-5-(4-(4-(2,2,2-trifluoroethyl)piperazin-1-yl)phenyl)pyridin-3-yl)-7-fluoro-3,4-dihydroisoquinolin-1(2H)-one] | 0.1 to 10 nM | > 1000 nM | –
Nc1nc(F)c(-c2ccc(C3CCNCC3)cc2)cc1-c1cc2c(cc1F)C(=O)NCC2 [I-238, 6-(2-amino-6-fluoro-5-(4-(piperidin-4-yl)phenyl)pyridin-3-yl)-7-fluoro-3,4-dihydroisoquinolin-1(2H)-one 2,2,2-trifluoroacetate] | 0.1 to 10 nM | > 1000 nM | –
CC(C)N1CCC(F)(c2ccc(-c3cc(-c4ccc5c(c4)CCNC5=O)c(N)nc3F)cc2)CC1 [I-239, 6-(2-amino-6-fluoro-5-(4-(4-fluoro-1-isopropylpiperidin-4-yl)phenyl)pyridin-3-yl)-3,4-dihydroisoquinolin-1(2H)-one] | 0.1 to 10 nM | > 1000 nM | –
Nc1nc(F)c(-c2ccc(N3CCN(CCC(F)(F)F)CC3)cc2)cc1-c1ccc2c(c1)CCNC2=O [I-240, 6-(2-amino-6-fluoro-5-(4-(4-(3,3,3-trifluoropropyl)piperazin-1-yl)phenyl)pyridin-3-yl)-3,4-dihydroisoquinolin-1(2H)-one] | 0.1 to 10 nM | > 1000 nM | –
COCCN1CCC(c2ccc(-c3cc(-c4cc5c(cc4F)C(=O)NCC5)c(N)nc3F)cc2)CC1 [I-241, 6-(2-amino-6-fluoro-5-(4-(1-(2-methoxyethyl)piperidin-4-yl)phenyl)pyridin-3-yl)-7-fluoro-3,4-dihydroisoquinolin-1(2H)-one] | 0.1 to 10 nM | > 1000 nM | –
Nc1nc(F)c(-c2ccc(C3CCN(CC4CC4)CC3)cc2)cc1-c1cc2c(cc1F)C(=O)NCC2 [I-242, 6-(2-amino-5-(4-(1-(cyclopropylmethyl)piperidin-4-yl)phenyl)-6-fluoropyridin-3-yl)-7-fluoro-3,4-dihydroisoquinolin-1(2H)-one] | 0.1 to 10 nM | > 1000 nM | –
Nc1nc(F)c(-c2ccc(N3CCN(CCC(F)(F)F)CC3)cc2)cc1-c1cc2c(cc1F)C(=O)NCC2 [I-243, 6-(2-amino-6-fluoro-5-(4-(4-(3,3,3-trifluoropropyl)piperazin-1-yl)phenyl)pyridin-3-yl)-7-fluoro-3,4-dihydroisoquinolin-1(2H)-one] | 0.1 to 10 nM | > 1000 nM | –
CC(C)N1CCC(c2ccc(-c3cc(-c4cc5c(cc4F)C(=O)NCC5)c(N)nc3F)cc2)CC1 [I-244, 6-(2-amino-6-fluoro-5-(4-(1-isopropylpiperidin-4-yl)phenyl)pyridin-3-yl)-7-fluoro-3,4-dihydroisoquinolin-1(2H)-one] | 0.1 to 10 nM | > 1000 nM | –
CCN1CCC(c2ccc(-c3cc(-c4cc5c(cc4F)C(=O)NCC5)c(N)nc3F)cc2)CC1 [I-245, 6-(2-amino-5-(4-(1-ethylpiperidin-4-yl)phenyl)-6-fluoropyridin-3-yl)-7-fluoro-3,4-dihydroisoquinolin-1(2H)-one] | 0.1 to 10 nM | > 1000 nM | –
CN1CCN(c2ccc(-c3cc(-c4cc5c(cc4F)C(=O)NCC5)c(N)nc3F)cc2)CC1 [I-246, 6-(2-amino-6-fluoro-5-(4-(4-methylpiperazin-1-yl)phenyl)pyridin-3-yl)-7-fluoro-3,4-dihydroisoquinolin-1(2H)-one] | 0.1 to 10 nM | > 1000 nM | –
CN1CCN(c2ccc(-c3cc(-c4cc5c(cc4F)C(=O)NCC5)c(N)nc3F)cc2F)CC1 [I-247, 6-(2-amino-6-fluoro-5-(3-fluoro-4-(4-methylpiperazin-1-yl)phenyl)pyridin-3-yl)-7-fluoro-3,4-dihydroisoquinolin-1(2H)-one] | 0.1 to 10 nM | > 1000 nM | –
Nc1nc(F)c(-c2ccc(C3CCN(CC(F)(F)F)CC3)cc2)cc1-c1cc2c(cc1F)C(=O)NCC2 [I-248, 6-(2-amino-6-fluoro-5-(4-(1-(2,2,2-trifluoroethyl)piperidin-4-yl)phenyl)pyridin-3-yl)-7-fluoro-3,4-dihydroisoquinolin-1(2H)-one] | 11 to 100 nM | > 1000 nM | –
CN1CCN(c2ccc(-c3cc(-c4cc5c(cc4F)C(=O)NCC5)c(N)nc3F)cc2C(F)(F)F)CC1 [I-249, 6-(2-amino-6-fluoro-5-(4-(4-methylpiperazin-1-yl)-3-(trifluoromethyl)phenyl)pyridin-3-yl)-7-fluoro-3,4-dihydroisoquinolin-1(2H)-one] | 0.1 to 10 nM | – | 381 nM
C[C@@H]1CN(c2cc(F)c(-c3cc(-c4ccc5c(c4)CCNC5=O)c(N)nc3F)cc2[N+](=O)[O-])C[C@H](C)N1C [I-250, 6-(2-amino-6-fluoro-5-(2-fluoro-5-nitro-4-((3R,5S)-3,4,5-trimethylpiperazin-1-yl)phenyl)pyridin-3-yl)-3,4-dihydroisoquinolin-1(2H)-one formate] | 11 to 100 nM | > 1000 nM | –
COCCN1CCC(F)(c2ccc(-c3cc(-c4ccc5c(c4)CCNC5=O)c(N)nc3F)cc2)CC1 [I-251, 6-(2-amino-6-fluoro-5-(4-(4-fluoro-1-(2-methoxyethyl)piperidin-4-yl)phenyl)pyridin-3-yl)-3,4-dihydroisoquinolin-1(2H)-one] | 0.1 to 10 nM | > 1000 nM | –
CN1CCN(c2ccc(-c3cc(-c4cc5c(cc4F)C(=O)NCC5)c(N)nc3F)c(Cl)c2)CC1 [I-252, 6-(2-amino-5-(2-chloro-4-(4-methylpiperazin-1-yl)phenyl)-6-fluoropyridin-3-yl)-7-fluoro-3,4-dihydroisoquinolin-1(2H)-one] | 0.1 to 10 nM | > 1000 nM | –
CN1CCc2cc(-c3cc(-c4ccc5c(c4)CCNC5=O)c(N)nc3F)ccc21 [I-253, 6-(2-amino-6-fluoro-5-(1-methylindolin-5-yl)pyridin-3-yl)-3,4-dihydroisoquinolin-1(2H)-one] | 11 to 100 nM | > 1000 nM | –
CN1CCc2cc(-c3cc(-c4ccc5c(c4)CCNC5=O)c(N)nc3F)ccc2C1 [I-254, 6-(2-amino-6-fluoro-5-(2-methyl-1,2,3,4-tetrahydroisoquinolin-6-yl)pyridin-3-yl)-3,4-dihydroisoquinolin-1(2H)-one] | 11 to 100 nM | > 1000 nM | –
